Several values for one entry are separate records, joined by “and”; a condition that tells them apart may be missing. Identical values can stand only once. Toxic doses and inconclusive results are not listed. Where a SMILES comes first, the peptide text is derived from it.

Our source for the T/C values is PubChem BioAssay AID200 (DTP/NCI, 2004).

In the test the test system is B6C3F1 mice, B16 melanoma ip, median survival T/C. Description: NCI In Vivo Anticancer Drug Screen. Data for tumor model B16 Melanoma (intraperitoneal) in B6C3F1 mice. The settings on record: endpoint: median survival time, higher = longer survival. The method in brief: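 Values are T/C ratios: the measurement in treated animals divided by that in vehicle-treated controls, using survival or tumor size in mice carrying transplantable tumors.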

Where [1] appears, read: dose: 6.25 mg/kg/injection, schedule: Q01DX009 (ip), vehicle: Klucel (hydroxypropylcellulose) (HPC).
The mark [2] stands for this setting: dose: 12.5 mg/kg/injection, schedule: Q01DX009 (ip), vehicle: Klucel (hydroxypropylcellulose) (HPC).
The mark [3] stands for this setting: dose: 100.0 mg/kg/injection, schedule: Q01DX009 (ip), vehicle: Klucel (hydroxypropylcellulose) (HPC).
Setting [4] is: dose: 200.0 mg/kg/injection, schedule: Q01DX009 (ip), vehicle: Klucel (hydroxypropylcellulose) (HPC).
[5] abbreviates: dose: 25.0 mg/kg/injection, schedule: Q01DX009 (ip), vehicle: saline with Tween-80.
Where [6] appears, read: dose: 50.0 mg/kg/injection, schedule: Q01DX009 (ip), vehicle: saline with Tween-80.
Setting [7] is: dose: 200.0 mg/kg/injection, schedule: Q01DX009 (ip), vehicle: saline with Tween-80.
Where [8] appears, read: dose: 12.5 mg/kg/injection, schedule: Q01DX009 (ip), vehicle: saline.
[9] abbreviates: dose: 25.0 mg/kg/injection, schedule: Q01DX009 (ip), vehicle: saline.
Where [10] appears, read: dose: 50.0 mg/kg/injection, schedule: Q01DX009 (ip), vehicle: saline.

Turning to `C=C(OC)C(Nc1cc(OC)c(OC)cc1C(=O)OC1CC(O[C@@H]2C(=O)C(NC(=O)OC)=C3/C(=C\CSSSC)[C@]2(O)C#C/C=C\C#C[C@@H]3OC2OC(C)C(NOC3CC(O)C(SC)C(C)O3)C(O)C2OC2CC(OC)C(NCCC)CO2)OC(C)C1O)OC` (stereo partly specified), the T/C is 191 % of control (dose: 0.16 micrograms/kg/injection, schedule: Q01DX009 (ip), vehicle: saline + alcohol); 162 % of control (dose: 0.32 micrograms/kg/injection, schedule: Q01DX009 (ip), vehicle: saline + alcohol); 170 % of control (dose: 0.63 micrograms/kg/injection, schedule: Q01DX009 (ip), vehicle: saline + alcohol); 119 % of control (dose: 2.5 nanograms/kg/injection, schedule: Q01DX009 (ip), vehicle: saline + alcohol); 93 % of control (dose: 4.0 nanograms/kg/injection, schedule: Q01DX009 (ip), vehicle: saline + alcohol); 109 % of control (dose: 5.0 nanograms/kg/injection, schedule: Q01DX009 (ip), vehicle: saline + alcohol). The T/C (dose: 14.0 nanograms/kg/injection, schedule: Q01DX009 (ip), vehicle: saline + alcohol) was 102 % of control; the T/C (dose: 20.0 nanograms/kg/injection, schedule: Q01DX009 (ip), vehicle: saline + alcohol) is 155 % of control; the T/C (dose: 24.0 nanograms/kg/injection, schedule: Q01DX009 (ip), vehicle: saline + alcohol) was 103 % of control; the T/C (dose: 40.0 nanograms/kg/injection, schedule: Q01DX009 (ip), vehicle: saline + alcohol) was 219 % of control and 101 % of control; the T/C (dose: 66.67 nanograms/kg/injection, schedule: Q01DX009 (ip), vehicle: saline + alcohol) is 96 % of control; the T/C (dose: 111.11 nanograms/kg/injection, schedule: Q01DX009 (ip), vehicle: saline + alcohol) was 97 % of control.

Turning to `O=NN(CCF)C(=O)NC1CCCCC1`, the T/C reads like this: (dose: 3.12 mg/kg/injection, schedule: Q01DX009 (ip), vehicle: Klucel (hydroxypropylcellulose) (HPC)) 116 % of control; under setting [1], 166 % of control; (dose: 12.0 mg/kg/injection, schedule: Q01DX001 (ip), vehicle: Klucel (hydroxypropylcellulose) (HPC)) 121 % of control; under setting [2], 333 % of control; (dose: 25.0 mg/kg/injection, schedule: Q01DX001 (ip), vehicle: Klucel (hydroxypropylcellulose) (HPC)) 162 % of control; (dose: 100.0 mg/kg/injection, schedule: Q01DX001 (ip), vehicle: Klucel (hydroxypropylcellulose) (HPC)) 216 % of control.

`CCN(CC)c1ccc2cc(-c3nc4ccccc4n3C)c(=O)oc2c1`: the T/C under setting [1] is 94 % of control and 101 % of control; the T/C under setting [2] was 102 % of control and 106 % of control; the T/C (dose: 25.0 mg/kg/injection, schedule: Q01DX009 (ip), vehicle: Klucel (hydroxypropylcellulose) (HPC)) is 108 % of control and 111 % of control.

Take `CC(C)CC(C(=O)O)N(C)C(=O)OC(C)(C)C` (stereo unspecified): the T/C is 101 % of control under setting [3] and 90 % of control under setting [4].

As for `COc1ccc(C[C@@H]2NC[C@@H](O)[C@@H]2OC(C)=O)cc1`, the T/C by setting is: under setting [5], 124 % of control; (dose: 25.0 mg/kg/injection, schedule: Q04DX003 (ip), vehicle: saline with Tween-80) 112 % of control; under setting [6], 120 % of control; (dose: 50.0 mg/kg/injection, schedule: Q04DX003 (ip), vehicle: saline with Tween-80) 110 % of control; (dose: 100.0 mg/kg/injection, schedule: Q04DX003 (ip), vehicle: saline with Tween-80) 114 % of control; under setting [7], 120 % of control and 121 % of control. Besides, the T/C (dose: 200.0 mg/kg/injection, schedule: Q04DX003 (ip), vehicle: saline with Tween-80) is 112 % of control.

Consider `CC(=O)Oc1c[nH]c(=O)[nH]c1=O`, for which the T/C was 99 % of control (dose: 12.5 mg/kg/injection, schedule: Q01DX009 (ip), vehicle: distilled water + Tween-80); 97 % of control (dose: 12.5 mg/kg/injection, schedule: Q01DX009 (ip), vehicle: saline with Tween-80); 103 % of control (dose: 25.0 mg/kg/injection, schedule: Q01DX009 (ip), vehicle: distilled water + Tween-80); 98 % of control under setting [5]; 103 % of control (dose: 50.0 mg/kg/injection, schedule: Q01DX009 (ip), vehicle: distilled water + Tween-80); 98 % of control under setting [6]. The T/C was 102 % of control (dose: 100.0 mg/kg/injection, schedule: Q01DX009 (ip), vehicle: distilled water + Tween-80); 90 % of control (dose: 100.0 mg/kg/injection, schedule: Q01DX009 (ip), vehicle: saline with Tween-80); 98 % of control (dose: 200.0 mg/kg/injection, schedule: Q01DX009 (ip), vehicle: distilled water + Tween-80); 95 % of control under setting [7]; 92 % of control (dose: 400.0 mg/kg/injection, schedule: Q01DX009 (ip), vehicle: distilled water + Tween-80); 98 % of control (dose: 400.0 mg/kg/injection, schedule: Q01DX009 (ip), vehicle: saline with Tween-80).

On to `CCCC(NC(=O)CNC(=O)CNC(=O)OCc1ccccc1)C(=O)O` (stereo unspecified) (HELM PEPTIDE1{[O=C(OCc1ccccc1)[*:2]].G.G.[CCCC(N[*:1])C(=O)O]}$$$$V2.0), for which the T/C is 105 % of control under setting [3]; 103 % of control under setting [4]; 112 % of control (dose: 400.0 mg/kg/injection, schedule: Q01DX009 (ip), vehicle: Klucel (hydroxypropylcellulose) (HPC)).

For `NC(=O)c1c[se]c(C2OC(CO)C(O)C2O)n1` (stereo unspecified), the T/C is, setting by setting: (dose: 12.5 mg/kg/injection, schedule: Q01DX009 (ip), vehicle: water) 109 % of control; (dose: 25.0 mg/kg/injection, schedule: Q01DX009 (ip), vehicle: water) 102 % of control; (dose: 50.0 mg/kg/injection, schedule: Q01DX009 (ip), vehicle: water) 115 % of control; (dose: 100.0 mg/kg/injection, schedule: Q01DX009 (ip), vehicle: water) 109 % of control.

As for `C[n+]1c(/C=C\C=C\N2CCCCC2)sc2ccccc21`, the T/C was 107 % of control (dose: 0.12 mg/kg/injection, schedule: Q01DX009 (ip), vehicle: Klucel (hydroxypropylcellulose) (HPC)); 95 % of control (dose: 0.25 mg/kg/injection, schedule: Q01DX009 (ip), vehicle: Klucel (hydroxypropylcellulose) (HPC)); 90 % of control (dose: 0.5 mg/kg/injection, schedule: Q01DX009 (ip), vehicle: Klucel (hydroxypropylcellulose) (HPC)); 95 % of control (dose: 1.0 mg/kg/injection, schedule: Q01DX009 (ip), vehicle: Klucel (hydroxypropylcellulose) (HPC)); 110 % of control (dose: 2.0 mg/kg/injection, schedule: Q01DX009 (ip), vehicle: Klucel (hydroxypropylcellulose) (HPC)).

Consider `O=c1[nH]c(=O)n([C@H]2CCCO2)cc1F`, for which the T/C is 98 % of control (dose: 12.5 mg/kg/injection, schedule: Q01DX009 (ip), vehicle: suspension in saline); 100 % of control (dose: 25.0 mg/kg/injection, schedule: Q01DX009 (ip), vehicle: suspension in saline); 112 % of control (dose: 50.0 mg/kg/injection, schedule: Q01DX009 (ip), vehicle: suspension in saline); 107 % of control (dose: 100.0 mg/kg/injection, schedule: Q01DX009 (ip), vehicle: suspension in saline); 120 % of control (dose: 200.0 mg/kg/injection, schedule: Q01DX009 (ip), vehicle: suspension in saline).

With `CCCC(=O)Nc1ncnc2c1ncn2C1OC2COP(=O)(O)OC2C1OC(=O)CCC` (stereo unspecified), the T/C is 102 % of control (2×) and 103 % of control under setting [8]; 95 % of control and 100 % of control and 104 % of control under setting [9]; 93 % of control and 102 % of control (2×) under setting [10]; 94 % of control and 101 % of control and 102 % of control (dose: 100.0 mg/kg/injection, schedule: Q01DX009 (ip), vehicle: saline); 112 % of control and 88 % of control and 100 % of control (dose: 200.0 mg/kg/injection, schedule: Q01DX009 (ip), vehicle: saline); 88 % of control and 94 % of control and 103 % of control (dose: 400.0 mg/kg/injection, schedule: Q01DX009 (ip), vehicle: saline).

As to `O=CC(=O)c1ccc(O)cc1`, the T/C was 94 % of control (dose: 6.25 mg/kg/injection, schedule: Q01DX009 (ip), vehicle: saline); 99 % of control under setting [8]; 108 % of control under setting [9]; 120 % of control under setting [10].

Take `N=C1CCCS1`: the T/C reads like this: under setting [9], 109 % of control; under setting [10], 120 % of control.
